In US20250160318A1, “CRYOPRESERVATION SOLUTION AND USE THEREOF IN REDUCING ISCHEMIA-REPERFUSION INJURY (IRI) OF CELL, TISSUE, OR ORGAN” (Third Affiliated Hospital, Sun Yat-sen University, priority 2023, published 2025):

What was measured:
hUC-MSCs [1] = assay: Culture of hUC-MSCs plated after 72 h cryopreservation (cell status by light microscopy, cell number after 3 days); format: cell-based, human; conditions: hUC-MSCs after 72 h cryopreservation in Hibernate-A plus metabolite, 37° C., FIG. 3
Excerpt: (§1) Cells used in this experiment were: hUC-MSCs (donated umbilical cord tissues from the Biotherapy Center of the Third Affiliated Hospital of Sun Yat-sen University and newborns).
(§2) The number of cells used in this experiment was: 1×10^6 cells.
(§3) The basic cryopreservation solution used in this experiment was Hibernate™-A medium (Thermofisher, catalog number: GIBCO A1247501), and the components were shown in Table 1.
(§4) The experimental groups of this example included: Hibernate™-A, Hibernate™-A+TUDCA, Hibernate™-A+QCA, and Hibernate™-A+Phosphocholine.
(§5) The experimental operation of this example included: 1 mL of the resuspended hUC-MSCs cells in Hibernate™-A basic cryopreservation solution with the above-mentioned specified metabolites added were placed in a 5 mL EP tube, allowed to stand at room temperature for 20 min, and then placed in a 4° C. refrigerator shaker for slow shaking to allow cryopreservation for 72 h. After cryopreservation for 72 h, the cells were centrifuged and counted with trypan blue to calculate the cell survival rate, and then plated on a 96-well plates for CCK8 cell proliferation assay. The remaining cells were continued to be plated on a 6-well plate and placed in a 37° C. cell culture incubator to observe the subsequent cell status.

hUC-MSCs [2] = assay: Immediate cell survival rate of hUC-MSCs by trypan blue counting after 72 h cryopreservation at 4° C.; format: cell-based, human; conditions: metabolite added to Hibernate-A basic cryopreservation solution, FIG. 3
Excerpt: as §1, §2, §3, §4, §5

Hepatocytes = assay: Cryopreservation and rewarming of hepatocytes (MitoNeoD mitochondrial ROS, real-time imaging of cell membrane integrity); format: cell-based; conditions: UW solution with 50 μM phosphocholine, 4° C. 12 h, rewarming medium with 500 μM phosphocholine, 37° C. 2 h, FIGS. 7A-7B
Procedure: Hepatocytes cultured under normal conditions served as a 37° C. control. For cold exposure treatment, the medium was replaced with UW solution at room temperature for 15 min, and the cells in UW solution (containing 50 μM phosphocholine) were transferred to a 4° C. refrigerator for 12 h. Rewarming involved taking cells out of the refrigerator and culturing with a pre-chilled medium (containing 500 μM phosphocholine). After allowing to stand for 15 min at room temperature, the cells were transferred to a 37° C. incubator for 2 h. The integrity of cell membranes is dynamically monitored by Real-time imaging using MitoNeoD live cell dye to assess the mitochondrial ROS and transfection of a plasmid carrying the mNeonGreen tag and the phospholipase Cδ PH domain.

rat liver = assay: Static cold storage and rewarming/reperfusion of isolated rat liver (H&E sectioning, TUNEL staining); conditions: phosphocholine supplemented during rewarming/reperfusion, 4° C. 48 h, perfused 37° C. 2 h, FIGS. 8A-8C
Procedure: 2-3 month old male/female SD rats or 2-3 month old golden hamsters were fasted overnight and anesthetized by inhalation of isoflurane, and then given 50 IU of heparin. The bile duct was cannulated with a PE-10 catheter, and the portal vein was cannulated with a 22-G Introcan catheter. The liver was washed with physiological saline, UW, or UW supplemented with phosphocholine (50 μM) and collected. A perfusion system was established in a circulation mode, and 250 mL of a Krebs-Henseleit (KH) bicarbonate buffer or KH buffer supplemented with phosphocholine (500 μM) was prepared. Oxygenation was conducted in a mixed gas of 95% O2 and 5% CO2 through a fiber oxygenator to a partial pressure of oxygen exceeding 500 mmHg. The liver was stored at 4° C. for 48 h, equilibrated at room temperature for 10 min, and perfused at 37° C. for 2 h. A flow rate was set in pressure control mode, and a portal vein pressure (PVP) was kept constant at 12 mmHg. The flow rate and PVP were automatically monitored and recorded. The portal vein resistance (PVR) was calculated as follows: PVR (mmHg/mL×min×g liver)=PVP (12 mmHg)/portal vein flow rate (mLxminxg liver). Liver samples were fixated in 4% paraformaldehyde for subsequent H&E sectioning and TUNEL staining. […]

Compound: O=C(O)c1ccnc2ccccc12 [QCA, quinoline-4-carboxylic acid]
- total number of cells obtained after being plated and cultured for 3 days versus basic cryopreservation solution control (hUC-MSCs [1]): significantly more
- immediate cell survival rate versus basic cryopreservation solution control (hUC-MSCs [2]): slightly lower

Compound: C[C@H](CCC(=O)NCCS(=O)(=O)[O-])[C@H]1CC[C@H]2[C@@H]3[C@@H](O)C[C@@H]4C[C@H](O)CC[C@]4(C)[C@H]3CC[C@]12C.[Na+] [TUDCA, sodium tauroursodeoxycholate]
- total number of cells obtained after being plated and cultured for 3 days versus basic cryopreservation solution control (hUC-MSCs [1]): significantly more
- immediate cell survival rate versus basic cryopreservation solution control (hUC-MSCs [2]): significantly higher

Compound: C[N+](C)(C)CCOP(=O)([O-])O [phosphocholine]
- ROS in hepatocyte mitochondria (Hepatocytes; MitoNeoD): reduce
- integrity of hepatocyte membrane (Hepatocytes; mNeonGreen-PLCδ PH domain imaging): maintain the integrity
- total number of cells obtained after being plated and cultured for 3 days versus basic cryopreservation solution control (hUC-MSCs [1]): significantly more
- immediate cell survival rate versus basic cryopreservation solution control (hUC-MSCs [2]): slightly lower
- cell apoptosis versus control group (TUNEL staining) (rat liver): milder
- sinus cavity (H&E sections) (rat liver): apparently normal
